Activity calls are given as the source filed them. The rule behind the calls is not given here.

The target of assay [1] is T1, Cannabinoid receptor 1 (Homo sapiens, UniProt P21554). Kind of assay: Displacement of [3H]-SR- 141716A binding to human CB1 receptor expressed in CHO cell membranes at the concentration of 10 uM.
The target of assay [2] is T1, Cannabinoid receptor 1. The assay can be described thus: Displacement of [3H]-SR- 141716A binding to human CB1 receptor expressed in CHO cell membranes at the concentration of 10 uM; Not significant. In general terms: Displacement assays read how much labelled ligand stays bound in the presence of the test substance.
The target of assay [3] is T1, Cannabinoid receptor 1. The assay can be described thus: Displacement of [3H]-SR- 141716A binding to human CB1 receptor expressed in CHO cell membranes at the concentration of 1 uM.
Assay [4] addresses T1, Cannabinoid receptor 1. Kind of assay: biochemical. Format: cell-based, CHO.
For assay [5], the target named is T1, Cannabinoid receptor 1. Kind of assay: Ability to displace [3H]-SR- 141716A binding to CB1 receptor expressed in CHO cell membrane. The assay is classed as cell membranes.
The target of assay [6] is T1, Cannabinoid receptor 1. Kind of assay: Binding affinity for brain CBI receptor was determined.

T1 sequence (P21554 whole entry): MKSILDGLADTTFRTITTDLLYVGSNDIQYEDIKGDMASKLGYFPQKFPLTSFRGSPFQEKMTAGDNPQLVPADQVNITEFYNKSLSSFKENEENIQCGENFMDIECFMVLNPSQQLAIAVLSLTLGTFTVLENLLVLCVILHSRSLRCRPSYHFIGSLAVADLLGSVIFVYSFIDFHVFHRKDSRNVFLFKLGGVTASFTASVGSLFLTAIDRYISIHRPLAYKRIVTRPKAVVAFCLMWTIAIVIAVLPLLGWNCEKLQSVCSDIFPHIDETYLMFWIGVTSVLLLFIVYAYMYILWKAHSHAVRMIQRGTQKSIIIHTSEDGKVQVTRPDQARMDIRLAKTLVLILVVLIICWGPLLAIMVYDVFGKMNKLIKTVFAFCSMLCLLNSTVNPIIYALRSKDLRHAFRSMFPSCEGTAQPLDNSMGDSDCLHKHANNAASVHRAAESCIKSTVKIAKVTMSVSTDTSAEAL

The compound `CCCCCCCN1C(=O)NC(c2ccc(C)cc2)(c2ccc(C)cc2)C1=O` displayed a Displacement at Cannabinoid receptor 1 [1] of 51.3%.
Same read-out and setting: the figure for `COc1ccc(C2(c3ccc(OC)cc3)NC(=O)N(CCN3CCOCC3)C2=O)cc1` is 21.7%; for `O=C1NC(c2ccccc2)(c2ccccc2)C(=O)N1CCN1CCCCC1` it is < 15%.
`O=C1NC(=O)C(c2ccc(F)cc2)(c2ccc(F)cc2)N1`: on Cannabinoid receptor 1 [2], the Displacement result is “inactive”.
Same read-out and setting: the entry for `O=C1NC(=O)C(c2ccc(Br)cc2)(c2ccc(Br)cc2)N1` is “inactive”.
At Cannabinoid receptor 1 [1], `Cc1ccc(C2(c3ccc(C)cc3)NC(=O)N(CCN3CCOCC3)C2=O)cc1` showed a Displacement of 23.9%.
As to `CN(C)CCN1C(=O)NC(c2ccccc2)(c2ccccc2)C1=O`, the Displacement at Cannabinoid receptor 1 [1] is < 5%.
`CCCCCCCCN1C(=O)NC(c2ccc(Br)cc2)(c2ccc(Br)cc2)C1=O`: the figures for the Displacement on Cannabinoid receptor 1 [1] and at Cannabinoid receptor 1 [3] were 80% and 48.2%, respectively.
`CCCCCCC(C)(C)c1cc(O)c2c(c1)OC(C)(C)[C@@H]1CCC(CO)C[C@@H]21` (stereo partly specified) showed a Ki at Cannabinoid receptor 1 [4] of 0.82 nM.
Turning to `CCCCCN1C(=O)NC(c2ccccc2)(c2ccccc2)C1=O`, the Displacement at Cannabinoid receptor 1 [1] was found to be 35.4%.
The same measure, in the same setting: the same measure for `O=C1NC(c2ccccc2)(c2ccccc2)C(=O)N1CCN1CCOCC1`: < 5%.
`O=C1NC(c2ccc(Br)cc2)(c2ccc(Br)cc2)C(=O)N1CCCO`: the values for the Displacement at Cannabinoid receptor 1 [1] and on Cannabinoid receptor 1 [3] were 88.4% and 50.2%, respectively. In addition, the Ki on Cannabinoid receptor 1 [5] came out at 103 nM.
`CCCCCCCCN1C(=O)NC(c2ccccc2)(c2ccccc2)C1=O`: the Displacement at Cannabinoid receptor 1 [1] was found to be 61.2%.
For the compound `O=C1NC(c2ccccc2)(c2ccccc2)C(=O)N1C1CC1`, the Displacement at Cannabinoid receptor 1 [1] was < 5%.
On the same count and under the same terms, the same measure for `CCCCCCN1C(=O)NC(c2ccc(C)cc2)(c2ccc(C)cc2)C1=O`: 46.8%.
For `CCCCCCCN1C(=O)NC(c2ccc(Br)cc2)(c2ccc(Br)cc2)C1=O`, the Displacement was 89.2% on Cannabinoid receptor 1 [1] and 51.5% at Cannabinoid receptor 1 [3]. The Ki on Cannabinoid receptor 1 [5] came to 97.9 nM.
Compound `CCCCCn1ccc(C(=O)c2cccc3ccccc23)c1` yielded an inhibition constant Ki at Cannabinoid receptor 1 [6] of 87 nM.
`CCCCCCN1C(=O)NC(c2ccc(F)cc2)(c2ccc(F)cc2)C1=O` displayed a Displacement at Cannabinoid receptor 1 [1] of 40.6%.
Turning to `O=C1NC(c2ccc(Br)cc2)(c2ccc(Br)cc2)C(=O)N1CCN1CCOCC1`, the Displacement on Cannabinoid receptor 1 [1] worked out at 91.2%; at Cannabinoid receptor 1 [3] it was 54.1%. Besides, the Ki at Cannabinoid receptor 1 [5] is 70.3 nM.
Turning to `CCCCCCN1C(=O)NC(c2ccc(Br)cc2)(c2ccc(Br)cc2)C1=O`, the results for the Displacement at Cannabinoid receptor 1 [1] and at Cannabinoid receptor 1 [3] were 72.1% and 30.2%, respectively.
As to `COc1ccc(C2(c3ccc(OC)cc3)NC(=O)NC2=O)cc1`, the Displacement result on Cannabinoid receptor 1 [2] is “inactive”.
Turning to `CCCCCCCN1C(=O)NC(c2ccc(F)cc2)(c2ccc(F)cc2)C1=O`, on Cannabinoid receptor 1 [1], the Displacement worked out at 51.4%.
Same read-out and setting: the same measure for `O=C1NC(c2ccccc2)(c2ccccc2)C(=O)N1Cc1ccccc1`: 40.6%.
Consider `CCCCCCN1C(=O)NC(c2ccc(OC)cc2)(c2ccc(OC)cc2)C1=O`, for which the figures for the Displacement at Cannabinoid receptor 1 [1] and on Cannabinoid receptor 1 [3] were 66.6% and 23%, respectively.
On to `CCCN1C(=O)NC(c2ccccc2)(c2ccccc2)C1=O`, for which the Displacement on Cannabinoid receptor 1 [1] was < 20%.
Turning to `CCCCCCCCN1C(=O)NC(c2ccc(F)cc2)(c2ccc(F)cc2)C1=O`, the figures for the Displacement on Cannabinoid receptor 1 [1] and on Cannabinoid receptor 1 [3] were 62.5% and 15.3%, respectively.
Compound `CCCCN1C(=O)NC(c2ccccc2)(c2ccccc2)C1=O` registered a Displacement at Cannabinoid receptor 1 [1] of 25.1%.
The same measure, in the same setting: the same measure for `O=C1NC(c2ccc(F)cc2)(c2ccc(F)cc2)C(=O)N1CCN1CCOCC1`: 30.3%.
Regarding `Cc1ccc(C2(c3ccc(C)cc3)NC(=O)NC2=O)cc1`, the Displacement entry at Cannabinoid receptor 1 [2] is “inactive”.
Still for that read-out and setting: the entry for `O=C1NC(=O)C(c2ccccc2)(c2ccccc2)N1` is “inactive”.
Turning to `CCCCCCN1C(=O)NC(c2ccccc2)(c2ccccc2)C1=O`, the Displacement on Cannabinoid receptor 1 [1] is 35.6%.

Usually Ki stands for a dissociation constant, usually derived from enzyme kinetics or from competition with a known ligand. Read a low Ki as higher affinity.

For the origin of these results see ChEMBL document CHEMBL1131824, “3-Alkyl-(5,5'-diphenyl)imidazolidineiones as new cannabinoid receptor ligands” (Bioorg Med Chem Lett, 1999).
